Where two headings read alike, the source gives them in different places.
Tests used:
Erf2 [1] = target: T1, Erf2 (Saccharomyces cerevisiae, UniProt Q06551); test: BODIPY-C12:0 gel-based assay of steady-state Erf2 autopalmitoylation; assay type: biochemical, S. cerevisiae
T1 construct: made in house; host or cells: Saccharomyces cerevisiae strain RJY1842 (erf4Δ/erf4Δ), galactose-induced pESC(-Leu) vector, Ni-NTA purified
Experimental: BODIPY®-C12:0-CoA (40 μM final, unless specified otherwise) was added to a 50 μl reaction containing approximately 0.5 μg enzyme (6×HIS-Erf2-(FLAG)-Erf4) and 100 μM inhibitors in 5% DMF in 50 mM sodium phosphate buffer, pH 6.8. The reactions were incubated 10 mins with inhibitor, and then the reaction was initiated with the addition of BODIPY®-C12:0-CoA, and incubated 15 mins at 30° C. The reaction was terminated by the addition of 5× non-reducing protein loading buffer. Each reaction was heated at 65° C. for 3 mins and then subjected to SDS-PAGE (12%). The gel was rinsed three times in ddH2O and visualized on the Typhoon 9410 Variable Mode Imager (GE Healthcare, Piscataway, N.J.) for BODIPY® fluorescence (ex. 488 nm/em. 532 nm) to visualize co-migration of the BODIPY® signal with 6×HIS-Erf2-(FLAG)-Erf4. The amount of 6×HIS-Erf2-(FLAG)-Erf4 was determined empirically using SDS-PAGE analysis under reducing conditions against a standard curve of bovine serum albumin.
To determine if the ten compounds identified in this study were inhibiting autopalmitoylation, and not targeting hydrolysis of the enzyme, steady-state autopalmitoylation was evaluated at 100 μM of each compound compared to 100 μM 2-BP and DMF (vehicle) alone. […] From these screens we observed a decrease in BODIPY® fluorescence at the apparent molecular weight of Erf2. […]

Erf2 [2] = target: T1, Erf2; conditions: previously demonstrated [13]; cited from earlier work
Erf2 [3] = target: T1, Erf2; test: Fluorescence-based coupled PAT assay of the rate of Erf2 autopalmitoylation; assay type: biochemical, S. cerevisiae; conditions: for mode of inhibition of Erf2 autopalmitoylation: inhibitor titrations varying inhibitor and palmitoyl-CoA
Experimental: The HTS application of protein palmitoylation was recently described, but was adjusted for this study. The production of NADH was monitored with a Biotek Mx fluorimeter (Biotek, Winooski, Vt.) using 340 nm excitation/465 nm emission. The 50 μl reaction contained 2 mM 2-Oxoglutarate (α-ketoglutamic acid), 0.25 mM NAD+, 0.2 mM Thiamine Pyrophosphate, 0.5 μg of purified 6×HIS-Erf2-(FLAG)-Erf4, 1 mM EDTA, 1 mM dithiothreitol, 8 mU 2-oxogluarate dehydrogenase (α-ketoglutarate dehydrogenase), 50 mM sodium phosphate, pH 6.8, and 0 100 μM inhibitor in 5% DMF. The reaction was initiated by the addition of 40 μM palmitoyl-CoA and monitored for 30 mins at 30° C. The first 10 mins of the reaction was analyzed to determine the initial rates of CoASH release. The PAT specific activity was determined from a standard curve of NADH production with different CoASH amounts. In these reactions, CoASH was added to the standard PAT reaction mixture (without Erf2/Erf4 complex or palmitoyl-CoA) and the reaction was allowed to proceed to equilibrium before fluorescence was measured.
The identification of palmitoylation inhibitors has been hampered by the lack of assays amenable to high throughput screening applications. Previously, we validated an assay that monitors the rate of autopalmitoylation by measuring the production of CoASH generated from the […] of palmitoyl-CoA [13]. This assay has a Z′-value of 0.87 [13]. […] This assay can be used to monitor autopalmitoylation in real time or as an end point assay, thus providing flexibility when screening small molecule compounds. Compounds with internal fluorescence or that affect the assay components are easily identified and excluded, allowing for the rapid identification of the compounds that inhibit or activate PAT autopalmitoylation activity. […]

[4] = system: S. cerevisiae RJY1942 (sensitized); test: Yeast cell spot assay, sensitized strain; assay type: cell-based; conditions: for inhibition at 5 µM: Saccharomyces cerevisiae
Experimental: (§1) Following 24 hrs incubation with varying concentrations of the inhibitors in 1% DMF, S. cerevisiae strains RJY1941 and RJY1942 were then diluted 1/100, and spotted onto SC-Ura plates with 2% glucose. Cytotoxicity data was obtained by detecting the colony growth, following 48 hrs incubation at 30° C., with white light detection on the Bio-Rad Molecular Imager® ChemiDoc™ XRS+ (Hercules, Calif.) and performing densitometry with Bio-Rad ImageLab™ Software (Hercules, Calif.). Triplicate reactions were plated in triplicate. Values were normalized to vehicle control (1% DMF) for each plate, and then the averages of each reaction were compared for statistical analysis.
(§2) We next compared the ability of either strain to grow following the 24 hrs incubation with Compounds 13, 14, or 25. Serial dilutions of RJY1941 and RJY1942 were spotted on agar plates following incubation for 24 hrs with varying inhibitor concentrations. […] Conversely, compound 13 inhibited (100%) the growth of RJY1942 (sensitized) at 5 μM.

[5] = system: S. cerevisiae RJY1942 (palmitoylation sensitive); test: Growth inhibition assay, palmitoylation-sensitive strain; assay type: cell-based; conditions: for selectivity: EC50 in the control strain RJY1941 as compared to the sensitive strain RJY1942: growth curves, 24 hrs
Experimental: The in vivo effect of the inhibitors on Ras2 palmitoylation was investigated by comparing the growth of S. cerevisiae strains previously described for our complementation assay. Briefly, the cells contain a defective allele of RAS2 that is balanced by an episomal copy of RAS2 linked to URA3. Under these conditions, the yeast strain cannot grow unless the episomal copy of RAS2 is palmitoylated. Varying concentrations of the inhibitors were added to 200 μl volumes of the yeast cells at an OD600 between 0.8 and 1.2 in a 96-well plate format. The OD600 was observed every 30 mins for 24 hrs and EC50 values were determined by graphing rate of growth against concentration of inhibitor for each inhibitor.
To examine the inhibition of Ras palmitoylation in vivo, we utilized two strains of S. cerevisiae. The yeast strain RJY1942 (palmitoylation sensitive) requires Ras2 palmitoylation for viability. The isogenic wild type control yeast strain (RJY1941) is not dependent on Ras2 palmitoylation for viability. The growth of both strains was monitored in the presence (or absence) of our inhibitors every 30 mins for 24 hrs. EC50 values were calculated using GraphPad Prism® (La Jolla, Calif.) to extrapolate the effective concentration of each inhibitor that caused a 50% reduction in growth (FIG. 9). […] Compounds 13, 25, and 2-BP show a modest selectivity for the sensitive strain, RJY1942, over the control strain, RJY1941, resulting in a 2-fold greater EC50 value in the control strain as compared to the sensitive strain (values listed in FIG. 5, right panel). […] Additional work is needed to determine the mechanism of growth inhibition and selectivity of these compounds.

[6] = system: S. cerevisiae RJY1941 (control); test: Yeast cell spot assay, control strain; assay type: cell-based
Experimental: as §1, §2

[7] = 20 μM, spotted after 24 hrs incubation
[8] = concentrations lower than 20 μM (2.5, 5, 10 μM)
[9] = spotted after 24 hrs incubation, read-out: inhibition of growth of RJY1942 (sensitized)

T1 sequence (Q06551 whole entry): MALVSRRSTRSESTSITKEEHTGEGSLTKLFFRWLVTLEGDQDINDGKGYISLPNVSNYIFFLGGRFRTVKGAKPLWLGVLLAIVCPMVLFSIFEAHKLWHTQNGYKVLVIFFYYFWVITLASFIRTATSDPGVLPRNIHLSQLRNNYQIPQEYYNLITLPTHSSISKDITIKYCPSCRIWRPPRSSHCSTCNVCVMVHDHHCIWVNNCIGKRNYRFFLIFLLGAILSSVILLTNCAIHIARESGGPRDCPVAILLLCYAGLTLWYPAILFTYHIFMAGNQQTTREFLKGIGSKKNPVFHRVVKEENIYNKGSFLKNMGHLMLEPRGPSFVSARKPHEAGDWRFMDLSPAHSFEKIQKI

| Structure (SMILES) | Ki (Erf2 [1]; dose response curves of steady-state autopalmitoylation, read-out: steady-state autopalmitoylation inhibition constant (Ki), gel-based assay) [µM] | mode of inhibition of Erf2 autopalmitoylation (Erf2 [2]) | Ki (Erf2 [3]) [µM] | VMAX for the Palmitoyl-CoA substrate (Erf2 [3]; inhibitor at 25 μM) [µM] | VMAX for the Palmitoyl-CoA substrate (Erf2 [3]; inhibitor at 50 μM) [µM] | VMAX for the Palmitoyl-CoA substrate (Erf2 [3]; inhibitor at 100 μM) [µM] | inhibition of yeast growth in spot assay ([4]; 2.5-20 μM on solid yeast medium, strain not specified) | EC50 ([5]; Saccharomyces cerevisiae, read-out: EC50 (50% reduction in growth)) [µM] | selectivity: EC50 in the control strain RJY1941 as compared to the sensitive strain RJY1942 [5] [fold] | mode of inhibition of steady-state Erf2 autopalmitoylation (Erf2 [1]; 25, 50, 100 μM compound at varying BODIPY-C12-CoA) | inhibition of growth of RJY1941 (control) [6, 7] | inhibition of growth of RJY1941 (control) [6, 8] | mode of inhibition of Erf2 autopalmitoylation (Erf2 [3]) | inhibition at 5 µM [4, 9] [%] | inhibition of growth of RJY1942 (sensitized) ([4]; concentrations higher than 5 μM) | inhibition at 5 µM ([4]; read-out: inhibition of growth of RJY1942 (sensitized), relative to that observed for compound 13) [%] |
| --- | --- | --- | --- | --- | --- | --- | --- | --- | --- | --- | --- | --- | --- | --- | --- | --- |
| CCCCCCCCCCCCCCC(Br)C(=O)O (stereo not drawn) [Compound 2-BP, 2-bromopalmitic acid, reference compound] | 79 | uncompetitive or mixed inhibitor | 59 | 160 ± 5 | 126 ± 23 | 51 ± 8 | did not inhibit | 12.5 | 2 | – | – | – | – | – | – | – |
| CC(C)Cc1ccc(C(C)CN2CCNC[C@@H]2CCCCN2CCN(CC(C)c3ccc(CC(C)C)cc3)[C@@H](Cc3ccc(O)cc3)C2)cc1 (stereo partly drawn) [Compound 13, 4-(((2S)-1-(2-(4-isobutylphenyl)propyl)-4-(4-((2S)-1-(2-(4-isobutylphenyl)propyl)piperazin-2-yl)butyl)piperazin-2-yl)methyl)phenol] | – | – | – | 243 ± 20 | 354 ± 26 | 631 ± 94 | – | – | 2 | acting competitively | completely inhibited | no detectable effect | Competitively | 100 | – | – |
| CC(C)Cc1ccc(C(C)CN2CCNC[C@@H]2CCCCN2CCN(CCc3cc(C(F)(F)F)cc(C(F)(F)F)c3)[C@@H](Cc3ccc(O)cc3)C2)cc1 (stereo partly drawn) [Compound 14, 4-(((2S)-1-(3,5-bis(trifluoromethyl)phenethyl)-4-(4-((2S)-1-(2-(4-isobutylphenyl)propyl)piperazin-2-yl)butyl)piperazin-2-yl)methyl)phenol] | – | – | – | – | – | – | – | – | – | – | completely inhibited | no detectable effect | – | ~10 | total inhibition | – |
| CC(C)Cc1ccc(C(C)CN2CCN(CCCC[C@H]3CNCCN3CCc3cc(C(F)(F)F)cc(C(F)(F)F)c3)C[C@@H]2Cc2ccc(O)cc2)cc1 (stereo partly drawn) [Compound 25, 4-(((2S)-4-(4-((S)-1-(3,5-bis(trifluoromethyl)phenethyl)piperazin-2-yl)butyl)-1-(2-(4-isobutylphenyl)propyl)piperazin-2-yl)methyl)phenol] | – | – | – | 307 ± 30 | 344 ± 34 | 542 ± 60 | – | – | 2 | – | completely inhibited | no detectable effect | Competitively | – | – | ~90 |

From patent US10085981B2, “Protein acyl transferase inhibitors and methods of treatment” (UNIVERSITY OF SOUTH FLORIDA, priority 2015, dated 2018)
